For data set [1] the following is noted: mice; therapeutic doses; cited from earlier work.
Data set [2] concerns mouse L1210 leukemia cells. Particulars: cited from earlier work; for IC50 values (range in words): growth of mouse L1210 leukemia cells in culture.
In data set [3] the test system is K-562.
Protocol: (§1) The compounds of this invention were also tested against the panel of 60 human cancer cell lines at the National Cancer Institute, Bethesda, Md. […] The cytrotoxicity studies were conducted using a 48 hour exposure, and measuring the optical density of sulforhodamide B-derived color.
In data set [4] the test system is TK-10.
Protocol: as §1
In data set [5] the test system is SF-268.
Protocol: (§2) The compounds of this invention were also tested against the panel of 60 human cancer cell lines at the National Cancer Institute, Bethesda, Md. (44). The cytrotoxicity studies were conducted using a 48 hour exposure, and measuring the optical density of sulforhodamide B-derived color.
Data set [6] deals with SR.
Protocol: as §1
The test system of data set [7] is panel of 60 human cancer cell lines. The experiment in a line: NCI in-vitro cytotoxicity screen, whole panel. The data set is classed as cell-based.
Data set [8] concerns NCI-H23.
Protocol: as §1
In data set [9] the test system is HS 578T.
Protocol: as §2
Data set [10] has as its system OVCAR-8.
Protocol: as §2
Data set [11] deals with HT29.
Protocol: as §1
Data set [12] deals with NCI-H322M.
In data set [13] the test system is CCRF-CEM.
Protocol: as §1
For data set [14], the system named is LOX IMVI.
Protocol: as §2
Data set [15] has as its system BT-549.
Protocol: as §2
Data set [16] concerns MOLT-4.
Protocol: as §1
Data set [17] concerns melanoma. The conditions noted are these: phase I clinical trial; cited from earlier work.
Data set [18] relates to L1210 leukemia. The conditions noted are these: carzelesin 400 μg/kg, adozelesin 100 μg/kg; cited from earlier work.
For data set [19] the following is noted: favoring the natural (+)-isomer; cited from earlier work.

Broadly, the IC50 is the concentration at which inhibition is half-maximal. In general, GI50 refers to the concentration giving 50% growth inhibition. The low end stands for more potent growth inhibition, the high end for less potent growth inhibition. In general, ILS refers to how much longer treated animals lived than controls.

For `COc1c2c(c3cc(C(=O)N4CCc5c4c(OC)c(O)c4[nH]c(C(=O)N6CC7C[C@@]78C6=CC(=O)c6[nH]cc(C)c68)cc54)[nH]c3c1O)CCN2C(N)=O` (single isomer, unassigned; (+)) [(+)-CC1065], the “delayed lethality / delayed toxicity” value in [1] is listed as “delayed lethality”. In addition, the IC50 in data set [2] (L1210) was 0.02 nM. The “IC50 values (range in words)” value in data set [2] is listed as “pM range”.
For `COC(=O)c1cc2c([nH]1)C(=O)C=C1N(C(=O)c3cc4cc(OC)c(OC)c(OC)c4[nH]3)CC3CC123` (single isomer, unassigned; (+)) [DUMSA, (+)-duocarmycin SA], in data set [1], the “delayed lethality / delayed toxicity” value was “devoid of this toxic side effect”. Also, in data set [2], the “IC50 values (range in words)” value is recorded as “pM range”.
Consider `COc1cc2cc(C(=O)Nc3cc(O)ccc3CCCl)[nH]c2c(OC)c1OC` [Compound 3, 4-(2-Chloroethyl)-3-(5,6,7-trimethoxyindole-2-carboxamino)phenol], for which the CC50 was over 100 µM in [3]; 23.5 µM in data set [4]; over 100 µM in data set [5]; over 100 µM in data set [6]; over 100 µM in [8]; over 100 µM in [9]. In addition, the CC50 in [10], in data set [11], in data set [12], in [13], in [14] and in data set [15] was over 100 µM in each case. In [16], this molecule had a CC50 of over 100 µM. Further, the range of activity result in [7] (48 hour exposure) was “micromolar range”. Moreover, the “activity against leukemia cells” value in data set [7] (leukemia cells) is recorded as “none of these compounds showed much activity”. The “activity against melanoma cells” value in data set [7] (melanoma cells) is reported as “active”. For the same molecule, the “activity against solid tumors cells” value in [7] (solid tumors cells) is “strong activity”. For the same molecule, halving of growth in data set [12] (GI50) required 2.81 µM.
As for `Cc1c[nH]c2c1[C@@]13C[C@@H]1CN(C(=O)c1cc4cc(NC(=O)c5cc6ccccc6o5)ccc4[nH]1)C3=CC2=O` [adozelesin], in [1], the “delayed lethality / delayed toxicity” value was “devoid of the delayed toxicity problem”. Also, the clinical response entry in data set [17] is on record as “partial response”. In addition, in data set [18], the ILS was 90±11% and the survival is 0/6.
CPI-In-In: the “difference in cytotoxicity between enantiomers” value in [19] is recorded as “about 250 fold”.

The record behind these values is patent US6660742B2, “Compositions and methods of the use thereof achiral analogues of CC-1065 and the duocarmycins” (priority 2000, dated 2003).
